The record followed here is PMC5620277, “The histone methyltransferase EZH2 as a druggable target in SHH medulloblastoma cancer stem cells” (Oncotarget, 2017).

Experiment [1] relates to DAOY-SLCs. In words: Cell viability, MTS assay, DAOY-SLCs. It is filed as cell-based. To be noted: 5 μM, after 48 h. The procedure: (§1) To evaluate cell viability cells were plated at a density of 5×10^3 cells/well in 96-well plates and were incubated with MTS solution (CellTiter 96® AQueous One Solution Promega).
A general note: Formazan colour is commonly taken as a measure of viable cells.

The subject of experiment [2] is hMB-SLCs. The experiment can be described thus: Western Blot of H3K27me3, PCNA, cleaved caspase 3 in hMB-SLCs. The note with it: 5 μM, 48 h. It is filed as cell-based, human. The procedure: as §1
Western blots were performed according to standard procedures. Briefly, protein lysates were prepared using RIPA buffer with fresh protease inhibitors. Lysates were separated on SDS polyacrylamide gels. Proteins were transferred on nitrocellulose membrane (0.45 micron) (PerkinElmer). Membranes were blocked for 1 h at room temperature in 5% nonfat dry milk and incubated overnight at 4°C with antibodies against EZH2 (4905S Cell signaling), H3K27me3 (07-449 Millipore), PCNA (2586 Cell signaling), ACTIN (I-19 sc-1616; Santa Cruz Biotechnology), GAPDH (ab9484, Abcam), cleaved CSP-3 (D-175 9661S; Cell Signaling) and H3 (ab1971, Abcam). HRP-conjugated secondary antibodies (Santa Cruz Biotechnology) were used in combination with enhanced chemiluminescence (ECL Amersham).
Background: A western blot detects proteins with antibodies after separation by electrophoresis.

The target of experiment [3] is MLL1 complex (Homo sapiens, UniProt Q03164). In words: Methyltransferase panel: MLL1 complex. The class given is biochemical. To be noted: substrate nucleosomes. The method, then:
(§2) MC3629 was tested in the cell free enzymatic assay (EZH2/PRC2) in 10-dose IC50 mode with 2-fold serial dilution starting from 400 μM solution, using various histone substrates (histone H3/H4 octamer, histone H3/H4 tetramer, histone H3, and core histone) and SAM as the co-substrate. […] (Figure 2B, and Supplementary Figure 2).
(§3) The appropriate methyltransferase (MT) substrate (0.05 mg/ml core histone for EZH1 complex, 0.05 mg/ml oligonucleosomes for DOT1L, 5 μM histone H3 (1-21) peptide for G9a, 0.05 mg/ml nucleosomes for MLL1 complex, 0.05 mg/ml core histone for SET7/9, 5 μM histone H4 for PRMT1, and 0.001 mg/ml poly(dI-dC) for DNMT1) was added in freshly prepared Reaction Buffer (50 mM Tris-HCl (pH 8.5), 5 mM MgCl2, 50 mM NaCl, 0.01% Brij35, 1 mM DTT, 1% DMSO). The MT enzyme was delivered into the substrate solution and the mixture was mixed gently. Afterwards, the tested compound dissolved in DMSO was delivered into the enzyme/substrate reaction mixture by using Acoustic Technology (Echo 550, LabCyte Inc. Sunnyvale, CA) in nanoliter range, and 1 μM ^3H-SAM was also added into the reaction mixture to initiate the reaction. The reaction mixture was incubated for 1 h at 30°C and then it was delivered to filter-paper for detection. The data were analyzed using Excel and GraphPad Prism software for IC50 curve fits (for EZH1 complex).

For experiment [4], the target named is T1, SET7/9 (Homo sapiens, UniProt Q8WTS6).
T1 sequence (Q8WTS6 1-366): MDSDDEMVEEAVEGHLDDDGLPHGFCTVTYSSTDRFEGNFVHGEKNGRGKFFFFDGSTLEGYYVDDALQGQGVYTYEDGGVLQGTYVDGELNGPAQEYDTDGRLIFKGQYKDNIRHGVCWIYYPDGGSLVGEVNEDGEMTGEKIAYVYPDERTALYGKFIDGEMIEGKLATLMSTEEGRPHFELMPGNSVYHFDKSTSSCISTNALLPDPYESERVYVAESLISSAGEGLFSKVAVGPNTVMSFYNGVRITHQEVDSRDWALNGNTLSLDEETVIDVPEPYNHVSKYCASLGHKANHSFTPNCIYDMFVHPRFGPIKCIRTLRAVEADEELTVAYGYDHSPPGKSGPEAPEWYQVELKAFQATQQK
In words: Methyltransferase panel: SET7/9. The note with it: substrate histone H3/H4 octamer. The class given is biochemical. The procedure:
as §2, §3

The target in experiment [5] is PRMT1 (Homo sapiens, UniProt Q99873). The experiment can be described thus: Methyltransferase panel: PRMT1. The class given is biochemical. To be noted: substrate histone H4. The method, then:
as §2, §3

Experiment [6] addresses EZH1 complex (Homo sapiens, UniProt Q92800). The experiment can be described thus: Methyltransferase panel: EZH1 complex. It is filed as biochemical. The procedure: as §2, §3
In experiment [7] the target is DOT1L (Homo sapiens, UniProt Q8TEK3). The experiment can be described thus: Methyltransferase panel: DOT1L. The class given is biochemical. To be noted: substrate nucleosomes. The procedure: as §2, §3
Chain of DOT1L (Q8TEK3 whole entry, species assumed): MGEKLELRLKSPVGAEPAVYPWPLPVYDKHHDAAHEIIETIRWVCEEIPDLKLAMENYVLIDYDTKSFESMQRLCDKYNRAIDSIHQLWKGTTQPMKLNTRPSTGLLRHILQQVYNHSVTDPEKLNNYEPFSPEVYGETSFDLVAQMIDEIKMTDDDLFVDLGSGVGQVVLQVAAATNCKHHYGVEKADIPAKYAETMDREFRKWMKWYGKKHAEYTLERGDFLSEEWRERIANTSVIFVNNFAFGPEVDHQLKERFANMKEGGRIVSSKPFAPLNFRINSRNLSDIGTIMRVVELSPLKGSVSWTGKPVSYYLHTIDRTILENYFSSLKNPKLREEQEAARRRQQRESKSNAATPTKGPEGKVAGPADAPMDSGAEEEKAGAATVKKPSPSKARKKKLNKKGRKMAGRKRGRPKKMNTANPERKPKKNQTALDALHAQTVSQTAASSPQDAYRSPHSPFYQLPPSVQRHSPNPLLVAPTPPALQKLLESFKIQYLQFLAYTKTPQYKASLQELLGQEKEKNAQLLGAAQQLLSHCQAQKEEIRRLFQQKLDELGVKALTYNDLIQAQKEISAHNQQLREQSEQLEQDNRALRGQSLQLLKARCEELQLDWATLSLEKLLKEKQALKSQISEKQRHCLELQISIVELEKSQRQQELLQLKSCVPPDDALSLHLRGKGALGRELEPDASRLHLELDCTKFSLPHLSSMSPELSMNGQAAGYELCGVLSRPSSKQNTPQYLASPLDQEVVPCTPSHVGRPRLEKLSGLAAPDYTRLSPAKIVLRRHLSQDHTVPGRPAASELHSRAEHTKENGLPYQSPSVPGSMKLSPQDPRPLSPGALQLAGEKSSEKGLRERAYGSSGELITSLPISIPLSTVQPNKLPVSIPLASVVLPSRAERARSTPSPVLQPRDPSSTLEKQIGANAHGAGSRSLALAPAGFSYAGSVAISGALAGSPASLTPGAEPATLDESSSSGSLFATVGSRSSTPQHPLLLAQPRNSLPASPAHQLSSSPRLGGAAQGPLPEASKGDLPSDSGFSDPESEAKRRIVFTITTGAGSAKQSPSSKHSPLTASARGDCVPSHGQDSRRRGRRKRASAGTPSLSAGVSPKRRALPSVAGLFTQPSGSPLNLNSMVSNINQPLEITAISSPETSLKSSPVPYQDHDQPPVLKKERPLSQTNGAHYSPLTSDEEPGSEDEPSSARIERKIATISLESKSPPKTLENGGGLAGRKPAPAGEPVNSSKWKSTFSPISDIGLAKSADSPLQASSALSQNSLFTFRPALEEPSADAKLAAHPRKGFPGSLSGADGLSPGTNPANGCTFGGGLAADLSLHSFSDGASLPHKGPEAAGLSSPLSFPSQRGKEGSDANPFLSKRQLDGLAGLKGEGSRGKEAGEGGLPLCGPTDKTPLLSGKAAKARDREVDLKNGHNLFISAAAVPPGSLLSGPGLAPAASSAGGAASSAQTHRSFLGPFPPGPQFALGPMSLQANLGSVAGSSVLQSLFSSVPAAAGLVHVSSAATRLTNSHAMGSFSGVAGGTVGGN
The test system of experiment [8] is mMB-SLCs. In words: Cell viability, MTS assay, mMB-SLCs. The class given is cell-based, mouse. The procedure:
(§4) In both cell lines, we determined the lowest useful dose of MC3629 (5 μM) and the minimum effective time (48 h) (Figure 2D, 2E and Supplementary Figure 4A and 4B for data at 24 and 72 h). We next evaluated the performance of MC3629 on MB-SLCs in terms of cell viability in regards to other EZH2i in use, confirming the dose selection (Supplementary Figure 4C).
as §1

Experiment [9] concerns hMB-SLCs. In words: Cell viability, MTS assay, hMB-SLCs. The class given is cell-based, human. The method, then:
as §4, §1

Experiment [10] has as its system DAOY-SLCs orthotopic tumors (XT-MB). In words: Xenograft DAOY-SLCs orthotopic tumors (XT-MB) in nude mice. The class given is in vivo, mouse. The note with it: 20 μMoles/Kg i.p. twice a week for 3 weeks. The procedure:
Next, we generated xenograft DAOY-SLCs orthotopic tumors (XT-MB) in nude mice that grew as tumor masses with the characteristics of MBs.
DAOY-SLCs were stereotaxically implanted into the cerebellum of nude mice by using the following coordinates according to the atlas of Franklin and Paxinos: 6.6 mm posterior to the bregma; 1 mm lateral to the midline; and 2 mm ventral from the surface of skull of mice, under ketamine (100 mg/kg, i.p.)/xylazine (10 mg/kg, i.p.) anesthesia. Cells (2×10^5 per 3 μl) were implanted at an infusion rate of 1 μl/min. Mice were separated into two groups. Group 1 (n=8) was intraperitoneally treated with MC3629 (20 μMoles/Kg) suspended in 10% (2-Hydroxypropyl)-β-cyclodextrin +1%DMSO (Sigma), Group 2 (n=8) was treated with 10% (2-Hydroxypropyl)-β-cyclodextrin +1%DMSO (Sigma). After 21 days of treatment, animals were sacrificed and brains were formalin fixed and paraffin embedded. Brain tumor volume calculation: Serial thick coronal sections (2 μm) starting from mesencephalon to the end of cerebellum were performed. The analysis was performed on 20 sections, sampled every 40 μm on the horizontal plan of the cerebellum, in which the tumor was identified and outlined at 2.5X magnification.
Every 40 μm of brain slice, hematoxylin and eosin (H&E) staining was performed. Tumor area of every slice was evaluated with a microscope (Axio Imager M1 microscope) equipped with a motorized stage and software Image Pro Plus 6.2. The following formula was used to calculate brain tumor volume: tumor volume = sum of (measured area for each slice x slice thickness x sampling frequency).
Paraffin-embedded sections were deparaffinized, and stained with either H&E or immunohistochemical stains as specified. Heat-induced epitope retrieval was performed with citrate buffer pH 6. Sections were incubated with ki67 primary antibody (Thermo Scientific) for 1 h. Ki67 expression was expressed as percentages of total cells with labeled nuclei.

[11] abbreviates: dose- and time-dependent experiments.

pIC50: −log10 of the molar value.

Chain of EZH1 complex (Q92800 whole entry): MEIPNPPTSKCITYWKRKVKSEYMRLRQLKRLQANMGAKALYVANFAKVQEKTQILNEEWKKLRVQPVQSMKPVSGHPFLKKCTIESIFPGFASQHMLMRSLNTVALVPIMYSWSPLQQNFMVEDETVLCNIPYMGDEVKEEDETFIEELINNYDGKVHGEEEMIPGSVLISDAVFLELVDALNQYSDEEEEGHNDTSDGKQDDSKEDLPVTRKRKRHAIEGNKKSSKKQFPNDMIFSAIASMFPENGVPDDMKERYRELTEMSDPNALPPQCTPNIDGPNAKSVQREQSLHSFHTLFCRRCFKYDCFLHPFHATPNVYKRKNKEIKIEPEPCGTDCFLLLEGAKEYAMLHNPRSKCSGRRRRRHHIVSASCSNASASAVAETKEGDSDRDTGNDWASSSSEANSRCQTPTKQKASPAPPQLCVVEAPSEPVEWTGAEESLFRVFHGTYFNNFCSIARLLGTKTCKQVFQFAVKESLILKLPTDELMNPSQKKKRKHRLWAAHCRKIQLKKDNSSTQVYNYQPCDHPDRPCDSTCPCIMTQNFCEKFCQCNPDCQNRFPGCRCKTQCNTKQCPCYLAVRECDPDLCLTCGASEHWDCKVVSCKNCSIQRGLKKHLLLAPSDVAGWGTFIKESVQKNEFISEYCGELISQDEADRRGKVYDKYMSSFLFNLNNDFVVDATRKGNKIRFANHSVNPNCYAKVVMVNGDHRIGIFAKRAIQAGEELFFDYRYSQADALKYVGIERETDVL
Chain of EZH1 complex (O75530 whole entry partner): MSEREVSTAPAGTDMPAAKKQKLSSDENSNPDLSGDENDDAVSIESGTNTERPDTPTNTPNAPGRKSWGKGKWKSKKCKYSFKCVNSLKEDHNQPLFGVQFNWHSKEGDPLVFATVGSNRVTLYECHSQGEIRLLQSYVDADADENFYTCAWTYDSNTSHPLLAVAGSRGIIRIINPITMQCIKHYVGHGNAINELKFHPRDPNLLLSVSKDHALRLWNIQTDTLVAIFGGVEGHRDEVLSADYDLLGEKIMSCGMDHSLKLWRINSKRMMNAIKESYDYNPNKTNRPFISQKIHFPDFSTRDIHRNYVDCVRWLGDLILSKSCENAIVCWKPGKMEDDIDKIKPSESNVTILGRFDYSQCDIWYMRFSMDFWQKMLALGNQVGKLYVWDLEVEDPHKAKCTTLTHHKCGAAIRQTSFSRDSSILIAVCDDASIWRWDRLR
Chain of EZH1 complex (Q15022 whole entry partner): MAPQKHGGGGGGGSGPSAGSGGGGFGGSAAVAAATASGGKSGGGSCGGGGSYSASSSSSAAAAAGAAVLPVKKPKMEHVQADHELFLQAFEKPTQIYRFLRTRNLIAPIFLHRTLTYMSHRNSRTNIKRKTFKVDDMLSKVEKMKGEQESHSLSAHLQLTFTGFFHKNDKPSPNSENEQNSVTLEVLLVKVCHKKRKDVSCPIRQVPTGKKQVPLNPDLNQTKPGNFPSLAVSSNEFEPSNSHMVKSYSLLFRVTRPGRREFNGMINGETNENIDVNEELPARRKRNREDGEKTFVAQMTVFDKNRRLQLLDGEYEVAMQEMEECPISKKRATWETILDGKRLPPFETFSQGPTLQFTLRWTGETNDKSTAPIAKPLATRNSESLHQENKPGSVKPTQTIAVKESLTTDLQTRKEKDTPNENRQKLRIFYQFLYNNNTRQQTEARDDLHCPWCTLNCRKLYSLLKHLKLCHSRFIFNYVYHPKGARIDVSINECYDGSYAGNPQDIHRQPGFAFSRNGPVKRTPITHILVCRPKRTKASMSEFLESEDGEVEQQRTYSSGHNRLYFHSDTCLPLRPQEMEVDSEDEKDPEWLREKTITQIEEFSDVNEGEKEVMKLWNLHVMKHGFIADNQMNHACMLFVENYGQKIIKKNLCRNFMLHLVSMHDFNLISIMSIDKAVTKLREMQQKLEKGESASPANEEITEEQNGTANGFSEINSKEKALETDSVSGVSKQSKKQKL
Chain of EZH1 complex (Q09028 whole entry partner): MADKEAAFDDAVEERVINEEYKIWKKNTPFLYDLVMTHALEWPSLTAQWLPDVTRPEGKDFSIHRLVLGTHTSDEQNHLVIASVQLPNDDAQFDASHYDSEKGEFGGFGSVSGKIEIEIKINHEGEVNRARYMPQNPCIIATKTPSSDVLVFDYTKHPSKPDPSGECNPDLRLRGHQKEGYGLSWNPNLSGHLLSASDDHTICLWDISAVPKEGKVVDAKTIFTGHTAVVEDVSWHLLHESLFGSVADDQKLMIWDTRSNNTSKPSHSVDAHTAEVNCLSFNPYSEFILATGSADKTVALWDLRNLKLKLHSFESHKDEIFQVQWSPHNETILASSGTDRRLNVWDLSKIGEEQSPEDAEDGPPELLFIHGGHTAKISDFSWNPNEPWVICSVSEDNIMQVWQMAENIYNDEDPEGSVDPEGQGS
Chain of EZH1 complex (Q6ZN18 whole entry partner): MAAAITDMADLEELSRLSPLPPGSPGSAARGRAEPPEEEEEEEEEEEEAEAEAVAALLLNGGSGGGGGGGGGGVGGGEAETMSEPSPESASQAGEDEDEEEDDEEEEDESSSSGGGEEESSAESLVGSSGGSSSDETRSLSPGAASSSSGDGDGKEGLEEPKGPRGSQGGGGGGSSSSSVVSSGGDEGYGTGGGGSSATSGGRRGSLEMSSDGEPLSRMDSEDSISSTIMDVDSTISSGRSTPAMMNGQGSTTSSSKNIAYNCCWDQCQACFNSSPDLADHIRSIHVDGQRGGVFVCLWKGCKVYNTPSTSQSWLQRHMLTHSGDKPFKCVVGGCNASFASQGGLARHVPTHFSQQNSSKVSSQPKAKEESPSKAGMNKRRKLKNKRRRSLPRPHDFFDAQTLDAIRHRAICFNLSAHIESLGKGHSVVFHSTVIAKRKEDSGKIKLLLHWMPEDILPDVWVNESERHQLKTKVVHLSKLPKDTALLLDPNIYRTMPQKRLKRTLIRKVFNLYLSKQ
Chain of PRMT1 (Q99873 whole entry, species assumed): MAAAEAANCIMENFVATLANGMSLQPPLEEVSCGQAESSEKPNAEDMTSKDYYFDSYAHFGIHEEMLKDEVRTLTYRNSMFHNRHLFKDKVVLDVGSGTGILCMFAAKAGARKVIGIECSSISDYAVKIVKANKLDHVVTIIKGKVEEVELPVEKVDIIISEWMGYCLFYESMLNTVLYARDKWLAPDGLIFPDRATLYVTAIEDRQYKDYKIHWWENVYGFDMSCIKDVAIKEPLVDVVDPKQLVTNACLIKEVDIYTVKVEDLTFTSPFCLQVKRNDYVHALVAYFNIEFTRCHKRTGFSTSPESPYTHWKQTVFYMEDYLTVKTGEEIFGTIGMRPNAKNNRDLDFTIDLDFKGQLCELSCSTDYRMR

What is called inhibition is the share of the control response that was lost under treatment. Higher therefore signals a response far below the control. For orientation: pIC50 means the IC50 on a negative log10 scale, so that one unit is a factor of ten. A high value points to a low IC50. On to `Cc1cc(C)c(CNC(=O)c2cnn(-c3ccccc3)c2C)c(=O)[nH]1` [MC3629, N-((4,6-dimethyl-2-oxo-1,2-dihydropyridin-3-yl)methyl)-5-methyl-1-phenyl-1H-pyrazole-4-carboxamide], for which the cell viability entry in experiment [1] is recorded as “impaired cell viability”. For the same compound, the “H3K27me3 and PCNA protein levels” value in experiment [2] is recorded as “significantly impaired”. In [2], the “apoptosis, level of cleaved caspase 3” value is on record as “induced apoptosis”. Also, the inhibition at 200 µM in experiment [3] came to 20.7%; in [4], 5.2%; in [5], 5.7%; in [6] (200 μM, substrate histone H3/H4 octamer), 62.4%; in [7], 3%. In experiment [6] (footnote of Supplementary Table 1), the pIC50 was 3.86. The “minimum effective time, cell viability” value in experiment [8] and in experiment [9] was 48 h in each case. Also, the “lowest useful dose, cell viability” value in [8] (setting [11]) and in experiment [9] (setting [11]) was 5 µM throughout. Besides, in [9] (5 μM, 48 h), the “cell viability, combination with shEZH2 versus shEZH2 alone” value is recorded as “did not display any additive effect”. Further, the “H3K27me3 in tumor xenografts” value in experiment [10] (Western Blot) is “reduction”. The “NANOG protein in tumors” value in experiment [10] (Western Blot) is given as “significantly lower levels”. For the same compound, the “apoptosis, level of cleaved caspase 3 in XT-MB” value in [10] (Western Blot) is reported as “induction of apoptosis”. The “proliferating Ki67-positive cells in tumors” value in experiment [10] (immunostaining) is on record as “significant reduction”. Moreover, in experiment [10] (nude mice), the “XT-MB growth (xenograft volume)” value is “significantly impaired”.
